Assay results taken from PubChem BioAssay (NCI).
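Following 48 hours of exposure in 96-well plates, responses at five concentrations were used to interpolate endpoints linearly. At the GI50, growth is halved. TGI marks complete inhibition of growth.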

Experiments:
Test in all cases: NCI tumour cell line growth inhibition, 48 h
[1] = system: HOP-62 NSCLC
[2] = system: NCI-H226 lung
[3] = system: RPMI-8226 leukemia
[4] = system: RXF 393 renal
[5] = system: SF-268 CNS
[6] = system: SK-MEL-28 melanoma
[7] = system: SK-MEL-5 melanoma
[8] = system: TK-10 renal
[9] = system: UACC-257 melanoma
[10] = system: MDA-MB-435

SMILES | GI50 [1] [µM] | TGI [1] [µM] | GI50 [2] [µM] | TGI [2] [µM] | GI50 [3] [µM] | TGI [3] [µM] | GI50 [4] [µM] | TGI [4] [µM] | GI50 [5] [µM] | TGI [5] [µM] | GI50 [6] [µM] | TGI [6] [µM] | GI50 [7] [µM] | TGI [7] [µM] | GI50 [8] [µM] | TGI [8] [µM] | GI50 [9] [µM] | TGI [9] [µM] | GI50 [10] [µM] | TGI [10] [µM]
CCN1C(=O)N(CC)C2C1N=C(SC)N2/N=C/C=C/c1ccccc1OC (stereo not drawn) | 0.55 | > 45 | 2.14 | > 52.3 | 0.37 | 3.31 | 0.376 | 35.3 | 0.877 | > 57.7 | > 32.1 | > 50.3 | 0.365 | 1.51 | 1.09 | > 58.7 | > 32.9 | > 58 |  | 
CC(=O)[CH-]C(=O)c1ccccc1.CC(=O)[CH-]C(=O)c1ccccc1.CC(=O)[CH-]C(=O)c1ccccc1.[Ga+3] | 29 | 60.9 | 16.8 | 43.5 | 12.1 | 37.1 | 29.1 | 48 | 11.6 | 26.9 | 16.5 | 30.9 | 23.4 | 65.6 | 24 | 68.6 | 16.2 | 31.5 |  | 
CCC(=O)Nc1nnc(Cc2ccc(OC)c(OC)c2)s1 | > 100 | > 100 | > 100 | > 100 | > 100 | > 100 |  |  | > 100 | > 100 | > 100 | > 100 | > 100 | > 100 | > 100 | > 100 | > 100 | > 100 | > 100 | > 100
COc1cc(C(=O)O[C@H](C(=O)NCCCCNC(=O)[C@@H](OC(=O)c2cc(OC)cc3c(C)cccc23)[C@]2(C)CO2)[C@]2(C)CO2)c2cccc(C)c2c1 |  | 0.892 | 0.62 | 2.07 | 0.195 | 3.86 |  |  | 0.0101 | 0.0619 | 0.0409 | 50 | 0.0203 | 0.233 | 0.469 | 1.36 |  | 0.222 | 0.144 | 0.61
COC(=O)[C@@]12C3=NO[C@]1(C(=O)OC)C(O[Si](C)(C)C(C)(C)C)[C@@H](OC(C)=O)[C@@H](OC(C)=O)[C@@H]2[C@@H](OCc1ccccc1)CC3 (stereo partly drawn) |  | > 100 |  | > 100 |  | > 100 |  | 89.6 |  | > 100 |  | > 100 |  | > 100 |  | > 100 |  | > 100 |  | 
CN(C)N=Nc1ccc(S(N)(=O)=O)cc1 |  | > 100 |  | > 100 |  | > 100 |  |  |  | > 100 |  | > 100 |  | > 100 |  | > 100 |  | > 100 |  | 
COc1cc(-c2ccc[nH]2)[nH]c1/C=C1\N=C(C)C(CC(=O)OCC(C)(C)C)=C1C | 0.218 | 1.38 | 0.176 | 0.736 |  |  | 0.258 | 1.21 | 0.288 | 1.84 | 0.305 | 1.34 | 0.137 | 0.279 | 0.326 | 1.19 | 0.339 | 1.52 | 0.282 | 1.2
O=C(CI)Nc1ccc(Br)cc1 | 1.89 | 3.82 | 3.78 | 19.2 |  |  | 1.7 | 3.21 | 1.8 | 3.65 | 3.82 | 11.3 | 3.95 | 15.4 | 1.92 | 3.63 | 2.05 | 4.66 | 2.04 | 4.7
COc1cc(O)c(C(=O)/C=C/c2ccc(OC)c(OCc3ccccc3)c2)c(OC)c1 |  | > 100 |  | > 100 |  | > 100 |  | > 100 |  |  |  |  |  | > 100 |  | > 100 |  | > 100 |  | 
NC(=O)c1ncn(C2OC(CO)C(O)C2O)c1O (stereo not drawn) |  | > 100 |  | > 100 |  | > 100 |  | > 100 |  | > 100 |  | > 100 |  |  |  | > 100 |  |  |  | 
CC1=C2C=CC(=O)C[C@@]2(C)CCC1 |  | > 100 |  |  |  | > 100 |  | > 100 |  | > 100 |  | > 100 |  | > 100 |  | > 100 |  | > 100 |  | 
CCN(CC)c1ccc(C2N3CCCCC3[C@@H]3c4[nH]c5ccccc5c4CCN23)cc1 (stereo partly drawn) |  | > 100 |  |  |  | > 100 |  | 44.1 |  | 69 |  | 58 |  | 31.1 |  | 86.1 |  | 77.8 |  | 
